Assay results: patent US9096524B2, “Anthelmintic agents and their use” (Intervet International B.V., priority 2009, dated 2015)
Where two headings read alike, the source gives them in different places.

System: A. galli (intestinal roundworm of chicken) larval stage 3; O. dentatum (nodular worm of swine) larval stages 3 and 4
Assay: Activity against Ascaridia galli and Oesophagostomum dentatum larvae in vitro (minimum effective concentration)
Assay type: cell-based
[1] = in vitro, two or more of A. galli L3, O. dentatum L3, L4, threshold 1 μM, read-out: MEC (minimum effective concentration) against two or more of the tested nematodes
[2] = in vitro, one or more of A. galli L3, O. dentatum L3, L4, threshold 1 μM, read-out: MEC (minimum effective concentration) against one or more of the tested nematodes
[3] = in vitro, one or more of A. galli L3, O. dentatum L3, L4, threshold 7 μM, read-out: MEC (minimum effective concentration) against one or more of the tested nematodes
[4] = read-out: MEC (minimum effective concentration) against two or more of the tested nematodes, in vitro, two or more of A. galli L3, O. dentatum L3, L4, threshold 1 μM

Row | Structure (SMILES) | minimal effective concentration [1] | minimal effective concentration [2] | minimal effective concentration [3] | other results
1 | CC(C)(C)c1ccc(N2CCN(C(=O)CC(=O)N3CCC(Nc4ccc([N+](=O)[O-])c(C(F)(F)F)c4)CC3)CC2)cc1 [Example 203] | < 1 µM | – | – | –
2 | O=C(CCN1CCN(c2ccc(OCc3ccccc3)cc2)CC1)N1CCC(Oc2ccc([N+](=O)[O-])c(C(F)(F)F)c2)CC1 [Example 423] | < 1 µM | – | – | –
3 | CN(C)S(=O)(=O)c1ccc(NC2CCN(C(=S)CCCN3CCN(c4ccc(C(F)(F)F)cc4)CC3)CC2)cc1C(F)(F)F [Example 699] | < 1 µM | – | – | –
4 | CCOC(=O)c1ccc(NC2CCN(C(=O)CCCN3CCN(c4ccc(Cl)cc4)CC3)CC2)cc1 [Example 338] | – | < 1 µM | – | –
5 | CC(C)(C)c1ccc(N2CCN(CCC(=O)N3CCC(Nc4ccc(S(C)(=O)=O)c(C(F)(F)F)c4)CC3)CC2)cc1 [Example 340] | – | < 1 µM | – | –
6 | O=[N+]([O-])c1ccc(NC2CCN(S(=O)(=O)CCN3CCN(c4ccc(C(F)(F)F)cc4)CC3)CC2)cc1C(F)(F)F [Example 245] | < 1 µM | – | – | –
7 | O=C(CCN1CCN(c2ccc(F)cc2F)CC1)N1CCC(Nc2ccc([N+](=O)[O-])c(C(F)(F)F)c2)CC1 [Example 370] | – | – | < 7 µM | –
8 | O=C(CCN1CCN(c2cccc(OC(F)(F)F)c2)CC1)N1CCC(Nc2ccc([N+](=O)[O-])c(C(F)(F)F)c2)CC1 [Example 191] | < 1 µM | – | – | –
9 | O=C(CCN1CCN(c2ccc(Cl)c(C(F)(F)F)c2)CC1)N1CCC(Oc2ccc([N+](=O)[O-])c(C(F)(F)F)c2)CC1 [Example 218] | < 1 µM | – | – | –
10 | COc1ccc(N2CCN(CCC(=O)N3CC[C@H](Nc4ccc([N+](=O)[O-])c(C(F)(F)F)c4)C3)CC2)cc1 [Example 289] | < 1 µM | < 1 µM | – | –
11 | CC(C)(C)c1ccc(N2CCN(CCC(=O)N3CCCN(c4ccc([N+](=O)[O-])c(C(F)(F)F)c4)CC3)CC2)cc1 [Example 998] | – | – | < 7 µM | –
12 | O=[N+]([O-])c1ccc(NC2CCN(C(=S)CCN3CCN(C(=S)c4ccc(C(F)(F)F)cc4)CC3)CC2)cc1C(F)(F)F [Example 667] | < 1 µM | – | – | –
13 | CCCc1ccc(C2CCN(CCC(=O)N3CCC(Nc4ccc([N+](=O)[O-])c(OCC)c4)CC3)CC2)cc1 [Example 399] | – | – | < 7 µM | –
14 | O=C(CCCN1CCN(c2ccc(Cl)cc2)CC1)N1CCC(Oc2ccc([N+](=O)[O-])c(C(F)(F)F)c2)CC1 [Example 259] | – | < 1 µM | – | –
15 | COc1ccc(N2CCN(CCC(=O)N3CCC(Oc4ccc([N+](=O)[O-])c(OCC(C)C)c4)CC3)CC2)cc1OC [Example 515] | – | – | < 7 µM | –
16 | CC(C)(C)c1ccc(N2CCCN(CCCC(=O)N3CCC(Nc4ccc([N+](=O)[O-])c(C(F)(F)F)c4)CC3)CC2)cc1 [Example 163, 4-[4-(4-tert-butyl-phenyl)-[1,4]diazepan-1-yl]-1-[4-(4-nitro-3-trifluoromethyl-phenylamino)-piperidin-1-yl]-butan-1-one] | – | – | – | minimal effective concentration (read-out: MEC (minimum effective concentration) against one or more of the tested nematodes, in vitro, one or more of A. galli L3, O. dentatum L3, L4, threshold 1 μM): < 1 µM; minimal effective concentration (read-out: MEC (minimum effective concentration) against one or more of the tested nematodes, in vitro, one or more of A. galli L3, O. dentatum L3, L4, threshold 7 μM): < 7 µM; minimal effective concentration [4]: < 1 µM
17 | O=C(C1CCC[C@H](C(=O)N2CCN(c3ccccc3)CC2)C1)N1CCC(Oc2ccc([N+](=O)[O-])c(C(F)(F)F)c2)CC1 (some centres unmarked) [Example 228] | < 1 µM | – | – | –
18 | O=C(CCN1CCN(c2ccc(C(F)(F)F)cc2)CC1)N1CC[C@H](Nc2ccc([N+](=O)[O-])c(C(F)(F)F)c2)C1 [Example 285] | – | < 1 µM | – | –
19 | COc1cc(NC2CCN(C(=S)CCN3CCN(c4ccc(OCc5ccccc5)cc4)CC3)CC2)ccc1[N+](=O)[O-] [Example 675] | < 1 µM | – | – | –
20 | COc1cc(NC2CCN(C(=O)CCN3CCN(c4ccc(Cl)c(C(F)(F)F)c4)CC3)CC2)ccc1[N+](=O)[O-] [Example 384] | – | – | < 7 µM | –

Row | Structure (SMILES) | minimal effective concentration [1] | minimal effective concentration [2] | minimal effective concentration [3] | other results
21 | O=C(CCN1CCN(c2cccc(OC(F)(F)F)c2)CC1)N1CCC(Oc2ccc([N+](=O)[O-])c(C(F)(F)F)c2)CC1 [Example 225] | < 1 µM | – | – | –
22 | O=C(CCCN1CCCN(c2ccc(Cl)cc2)CC1)N1CC[C@@H](Nc2ccc([N+](=O)[O-])c(C(F)(F)F)c2)C1 [Example 777] | – | < 1 µM | – | –
23 | CCCc1ccc(C2CCN(CCC(=O)N3CCC(Nc4ccc([N+](=O)[O-])c(OC)c4)CC3)CC2)cc1 [Example 379] | – | – | < 7 µM | –
24 | N#Cc1ccc(NC2CCN(C(=O)CCN3CCN(c4ccc(C(F)(F)F)cc4)CC3)CC2)cc1 [Example 283] | < 1 µM | – | – | –
25 | COc1ccc(N2CCN(CCC(=O)N3CCC(Nc4ccc([N+](=O)[O-])c(C(F)(F)F)c4)CC3)CC2)cc1OC [Example 368] | < 1 µM | – | – | –
26 | O=C(CCN1CCN(c2ccc(C(F)(F)F)cc2)CC1)N1CCC(Nc2ccc(Cl)cc2)CC1 [Example 282] | – | – | – | minimal effective concentration [4]: < 1 µM
27 | COc1cc(OC2CCN(C(=O)CCN3CCN(c4ccc(C(F)(F)F)cc4)CC3)CC2)ccc1[N+](=O)[O-] [Example 479] | – | – | < 7 µM | –
28 | CCOc1cc(NC2CCN(C(=O)CCN3CCN(c4ccc(Cl)cc4F)CC3)CC2)ccc1[N+](=O)[O-] [Example 410] | – | – | < 7 µM | –
29 | CC(C)COc1cc(NC2CCN(C(=O)CCN3CCC(c4ccc(C(C)(C)C)cc4)CC3)CC2)ccc1[N+](=O)[O-] [Example 457] | – | – | < 7 µM | –
30 | O=C(CCCN1CCN(c2ccc(C(F)(F)F)cc2)CC1)N1CCC(Nc2ccc(C(F)(F)F)cc2)CC1 [Example 269] | < 1 µM | – | – | –
31 | O=C(CCC1CCN(c2cccc(C(F)(F)F)c2)CC1)N1CCC(Nc2ccc([N+](=O)[O-])c(C(F)(F)F)c2)CC1 [Example 215] | < 1 µM | < 1 µM | – | –
32 | CC(C(=O)N1CCC(Nc2ccc([N+](=O)[O-])c(C(F)(F)F)c2)CC1)C(C)N1CCN(c2ccc(C(C)(C)C)cc2)CC1 (centres unmarked) [Example 588] | – | – | – | minimal effective concentration [4]: < 1 µM
33 | COc1cc(NC2CCN(C(=O)CCN3CCC(c4ccc(Oc5ccccc5)cc4)CC3)CC2)ccc1[N+](=O)[O-] [Example 376] | – | < 1 µM | – | –
34 | N#Cc1ccc(N2CCN(C(=O)CCN3CCC(Nc4ccc([N+](=O)[O-])c(C(F)(F)F)c4)CC3)CC2)cc1 [Example 200] | – | < 1 µM | – | –
35 | CC(C)(C)c1ccc(N2CCN(CCCC(=O)N3CCCN(c4ccc(C#N)c(C(F)(F)F)c4)CC3)CC2)cc1 [Example 1010] | – | < 1 µM | – | –
36 | CCOc1cc(OC2CCN(C(=O)CCN3CCN(c4ccc(Cl)cc4F)CC3)CC2)ccc1[N+](=O)[O-] [Example 498] | – | – | < 7 µM | –
37 | N#Cc1ccc(NC2CCN(C(=O)CCCC3CCN(c4ccc(C(F)(F)F)cc4)CC3)CC2)cc1C(F)(F)F [Example 156, 2-trifluoromethyl-4-(1-{4-[1-(4-trifluoromethyl-phenyl)-piperidin-4-yl]-butyryl}-piperidin-4-ylamino)-benzonitrile] | < 1 µM | < 1 µM | < 7 µM | –
38 | O=C(CCN1CCN(c2ccccc2)CC1)N1CCC(Nc2ccc([N+](=O)[O-])c(C(F)(F)F)c2)CC1 [Example 169] | – | – | < 7 µM | –
39 | CC(C)COc1cc(NC2CCN(C(=O)CCN3CCN(c4ccc(F)cc4F)CC3)CC2)ccc1[N+](=O)[O-] [Example 469] | – | – | < 7 µM | –
40 | CCOc1cc(NC2CCN(C(=O)CCN3CCC(c4ccc(C(C)(C)C)cc4)CC3)CC2)ccc1[N+](=O)[O-] [Example 400] | – | < 1 µM | < 7 µM | –
